# Measured values: US20220211728A1, “ALKYL-TPP COMPOUNDS FOR MITOCHONDRIA TARGETING AND ANTI-CANCER TREATMENTS” (LUNELLA BIOTECH, INC., priority 2019, published 2022)
# “Also recorded” adds a separate entry of the source. Where two headings read alike, the source gives them in different places.
# Columns and labels:
# [1] = test system: MCF-7 breast cancer cells; assay: mammosphere formation assay (CSC propagation) in MCF-7 cells; type: cell-based, human; conditions: for IC50: Homo sapiens, MCF7
# Protocol: (§1) The mammosphere assay was performed as follows. A single cell suspension of MCF-7 or MDA-MB-231 cells was prepared using enzymatic (1× Trypsin-EDTA, Sigma Aldrich), and manual disaggregation (25 gauge needle). Cells were then plated at a density of 500 cells/cm^2 in mammosphere medium (DMEM-F12/B27/20-ng/ml EGF/PenStrep) in nonadherent conditions, in culture dishes coated with (2-hydroxyethylmethacrylate) (poly-HEMA, Sigma Aldrich), in the presence of treatments, were required. Cells were grown for 5 days and maintained in a humidified incubator at 37° C. at an atmospheric pressure in 5% (v/v) carbon dioxide/air. After 5 days for culture, spheres >50 μm were counted using an eye piece graticule, and the percentage of cells plated which formed spheres was calculated and is referred to as percentage mammosphere formation. Mammosphere assays were performed in triplicate and repeated three times independently.
# [2] = test system: MDA-MB-231 triple negative breast cancer cells; assay: mammosphere formation assay (CSC propagation) in MDA-MB-231 cells; type: cell-based, human
# Protocol: as §1
# [3] = test system: MCF-7 breast cancer cells; assay: cell viability by sulphorhodamine (SRB) assay in MCF-7 cells; type: cell-based; conditions: Homo sapiens, MCF7, 250 nM, 500 nM and 1 μM, read-out: reduction in cell viability
# Protocol: (§2) Cell viability was assessed in MCF-7 and hTERT-BJ1 cells by sulphorhodamine (SRB) assay, based on the measurement of cellular protein content. After treatment with d-TPP (50 nM+1 μM) for 24, 48 or 72 hours, cells were fixed with 10% trichloroacetic acid (TCA) for 1 hour in cold room, and dried overnight at room temperature. Then, cells were incubated with SRB for 15 min, washed twice with 1% acetic acid, and air dried for at least 1 hour. Finally, the protein-bound dye was dissolved in 10 mM Tris pH 8.8 solution and read using a plate reader at 540 nm.
# [4] = test system: normal human fibroblasts (hTERT-BJ1); assay: cell viability by sulphorhodamine (SRB) assay in normal fibroblasts; type: cell-based
# Protocol: as §2
# [5] = test system: MCF-7 cells; assay: Seahorse XFe96 metabolic flux analysis, oxygen consumption rate (OCR); type: cell-based, human
# Protocol: (§3) The extracellular acidification rate (ECAR) and real-time oxygen consumption rate (OCR) assays for metabolic flux analysis were performed using the Seahorse Extracellular Flux (XFe-96) analyzer (Seahorse Bioscience). Briefly, 15,000 MCF-7 cells per well were seeded into XFe-96 well cell culture plates, and incubated overnight to allow attachment. Cells were then treated with increasing concentrations of d-TPP (50 nM+500 nM) for 24 hours. Vehicle alone (DMSO) control cells were processed in parallel. Then, cells were washed in pre-warmed XF assay media (or for OCR measurement, XF assay media supplemented with 10 mM glucose, 1 mM Pyruvate, 2 mM L-glutamine and adjusted at 7.4 pH). Cells were then maintained in 175 μL/well of XF assay media at 37 C, in a non-CO2 incubator for 1 hour. During the incubation time, 5 μL of 80 mM glucose, 9 μM oligomycin, and 1 M 2-deoxyglucose (for ECAR measurement) or 10 μM oligomycin, 9 μM FCCP, 10 μM Rotenone, 10 μM antimycin A (for OCR measurement), were loaded in XF assay media into the injection ports in the XFe-96 sensor cartridge. Data set was analyzed by XFe-96 software after the measurements were normalized by protein content (SRB). All experiments were performed three times independently.
# [6] = test system: MCF-7 cells; assay: Seahorse XFe96 metabolic flux analysis, extracellular acidification rate (ECAR); type: cell-based, human; conditions: MCF-7, d-TPP 50 nM to 500 nM
# Protocol: as §3
# [7] = test system: adherent MCF-7 cells; assay: xCELLigence real-time cell analysis of cell proliferation; type: cell-based, human
# Protocol: The xCELLigence system was used to analyze the kinetics of d-TPP action on cell proliferation of adherent MCF-7 cells. The xCELLigence system evaluates the real-time, label-free monitoring of cell health and behavior, by measuring the electrical impedance, whose magnitude is dependent on the number of cells. Real-time cell analysis was performed for 48-hour and 72-hour treatment with d-TPP, at concentrations of 50 nM, 100 nM, and 250 nM. The control was vehicle-only. The results for the 48-hour d-TPP treatment are shown in FIGS. 8A and 8B, and FIGS. 8C and 8D show results for the 72-hour d-TPP treatment.
# The xCELLigence Real-time cell analysis (RTCA) System was sourced from ACEA Biosciences Inc. The xCELLigence RTCA system provides a useful approach for the real-time monitoring of the biological status of adherent cells, by measuring the electrical impedance, expressed as a cell index (CI) value. 5000 MCF-7 cells were seeded in a 16-well plate (E-plate). 24 hours after seeding, cells were treated with vehicle or increasing concentrations of d-TPP (from 50 nM to 250 nM) for additional 48 hours or 72 hours. RTCA was performed by measuring the cell-induced electrical impedance values, which were automatically recorded every 15 min for 96 h. This approach allows the quantification of the onset and kinetics of the cellular response. Experiments were repeated three times independently, using quadruplicate samples for each condition.
# [8] = test system: human breast tumors initiated from the MDA-MB-231 cell line; assay: CAM assay, tumor growth and metastasis; type: in vivo, chicken embryos
# Protocol: (§4) Further evaluation of both efficacy and toxicity was performed on human breast tumors initiated from the MDA-MB-231 cell line in chicken embryos using the CAM Model available from Inovotion (La Tronche, France). […] With respect to the CAM assay, fertilized eggs were incubated at 37.5° C. with 50% relative humidity for 9 days. The graft was dropped into each egg through a small hole drilled through the eggshell into the air sac, and a 1 cm^2 window cut in the eggshell above the CAM. This grafting process was used for each egg in a test group. Because the grafting process is an invasive surgical act, some death is expected to occur during hours after the tumor graft. For the data reported herein, at least 10 eggs per test group were successfully grafted.
# The MDA-MB-231 tumor cell line was cultivated in DMEM medium supplemented with 10% FBS and 1% penicillin/streptomycin. After the 9-day incubation period, cells were detached with trypsin, washed with complete medium, and suspended in a graft medium. An inoculum of 1.10^6 cells was added onto the CAM of each egg, and then eggs were randomized into test groups. Tumors were detectable within one day of the graft. The negative control group was a 0.125% DMSO in PBS, and d-TPP groups for concentrations of 6.25 μM, […], were evaluated. Each egg in a group was treated 8 times per day. After 8 days of treatments, tumor growth was quantitatively evaluated. The upper portion of the CAM (with the tumor) was removed, washed in a PBS buffer, and then directly transferred in PFA for a 48-hour fixation. Tumors were then carefully cut away from normal CAM tissue and weighed. For all quantitative data relating to the chicken egg evaluation, a one-way ANOVA (with post-tests between each couple of groups) was performed with the specialized computer software Prism® (GraphPad Software). For all analyses, statistical difference between groups is made visible on graphs by the presence of stars with the following meaning: no asterisk means p>0.05; * means […]; ** means 0.01≥p>0.001; and *** means 0.001≥p. […] Consistent with the evaluations described above, the d-TPP tumor growth inhibition effect was dose-dependent.
# Metastatic invasion was also quantitatively evaluated. A 1 cm^2 portion of the lower CAM was collected to evaluate the number of metastatic cells in 8 samples per group (n=8). Genomic DNA was extracted from the CAM using a commercial kit, and analyzed by qPCR with specific primers for Human Alu sequences. Calculation of Cq for each sample, mean Cq and relative amounts of metastases for each group were directly managed by the Bio-Rad® CFX Maestro software. […]
# [9] = test system: chicken embryos; assay: CAM assay, embryonic tolerability; type: in vivo
# Protocol: as §4
# Embryonic tolerability of the d-TPP treatments were also quantitatively evaluated. Embryonic viability was checked daily following grating and during treatment. The number of dead embryos was also counted on the final day, to evaluate treatment-induced embryo toxicity. […] It should be appreciated by those having an ordinary level of skill in the art that toxicity should be analyzed for establishing a dosing regimen.
# [10] = test system: MCF-7 breast cancer cells; conditions: b-TPP, identified in International Application PCT/US2018/062174; read-out: IC-50 inhibiting CSC propagation; cited from earlier work
# [11] = Berberine chloride 10 μM with d-TPP 100 nM
smiles,measurement,setting,value
COc1ccc2cc3[n+](cc2c1OC)CCc1cc2c(cc1-3)OCO2 [Berberine chloride],reduction (CSC formation),[1]; Berberine chloride 1 μM with d-TPP 100 nM,60%
same,increase in efficacy of d-TPP,[1]; [11],~5 fold
same,inhibition of CSC formation,[1]; [11],over 80%
O=C(Nc1ccc([N+](=O)[O-])cc1Cl)c1cc(Cl)ccc1O [Niclosamide],increase in efficacy of d-TPP on CSC activity,[1]; Niclosamide 250 nM with d-TPP 100 nM,~2 fold
same,increase in efficacy of d-TPP on CSC activity,[1]; Niclosamide 500 nM with d-TPP 100 nM,~3 fold
"CCCCCCCCCCC[P+](c1ccccc1)(c1ccccc1)c1ccccc1 [d-TPP, dodecyl-TPP]",IC50,"[1]; MCF-7, read-out: concentration necessary to half CSC activity",~0.25 µM
same,potency in inhibiting mammosphere formation / CSC propagation compared with b-TPP (other TPP-derivatives),[1]; MCF-7,twice as potent; also recorded: more than twice as potent
same,reduction in mammosphere formation,"[1]; MCF-7, d-TPP 50 nM and 100 nM",20%
same,reduction in CSC propagation (mammosphere formation),"[1]; MCF-7, d-TPP 500 nM and 1 μM",80%
same,inhibition at 1 µM,"[2]; Homo sapiens, MDA-MB-231, d-TPP 1 μM",~80%
same,effect on CSC propagation (mammosphere formation),"[2]; MDA-MB-231, d-TPP 50 nM (lowest concentration tested)",showed an inhibitory effect
same,cytotoxicity at 0.25 µM,"[3]; MCF-7, 24 hours",~30%
same,cytotoxicity at 0.25 µM,"[3]; MCF-7, 72 hours",~80%
same,toxicity to hTERT-BJ1 cells,[4]; 50 nM and 100 nM,no toxicity
same,cell viability of hTERT-BJ1 cells,"[4]; 250 nM, 500 nM and 1 μM",decreased
same,IC50,"[5]; Homo sapiens, MCF7, MCF-7, 24 hours treatment, read-out: IC-50 basal mitochondrial respiration",~0.25 µM
same,oxygen consumption rate (OCR),"[5]; MCF-7, d-TPP 50 nM",dramatic reduction
same,ATP levels,"[5]; MCF-7, d-TPP 50 nM to 500 nM",dose-dependently depleted
same,glycolysis (ECAR),[6],substantially and dose-dependently increased
same,effect on cell number (cell index),"[7]; MCF-7, 50 nM d-TPP, 72 h treatment",trend of reduced cell number
same,effect on cell proliferation (cell index),"[7]; MCF-7, 100 nM d-TPP",main cytostatic effect
same,cytotoxicity (cell index),"[7]; MCF-7, 250 nM d-TPP",Cytotoxicity was present
same,inhibition of metastasis,[8]; 25 μM concentration,~75%
same,inhibition of tumor growth,[8]; 25 sM concentration,~40%
same,tumor growth (tumor weight) compared to the negative control,[8]; medium (25.0 μM) and high (62.5 μM) doses,significantly inhibited
same,metastatic invasion (qPCR for Alu sequences in the lower CAM) compared to the negative control,[8]; medium dose,metastasis regression
same,embryo toxicity,[9]; higher dose,resulted in mortality
same,embryo toxicity,[9]; medium and low doses,did not exhibit toxicity
"C(=CC[P+](c1ccccc1)(c1ccccc1)c1ccccc1)C[P+](c1ccccc1)(c1ccccc1)c1ccccc1 [b-TPP, 2-butene-1,4-bis-TPP]",IC50,[10],~0.5 µM
"O=CC[C@@H](O)[C@H](O)[C@H](O)CO [2-DG, 2-deoxy-D-glucose]",increase in the inhibitory effect of d-TPP alone,[1]; 2-DG 10 mM with d-TPP 100 nM,2 fold
same,residual mammosphere formation capability,[1]; 2-DG 20 mM with d-TPP 100 nM,< 10%
"O=C1O[C@H]([C@@H](O)CO)C(O)=C1O [Vitamin C, Ascorbic Acid]",IC50,"[1]; Vitamin C separately (without d-TPP), read-out: IC-50 MCF-7 CSC propagation",1000 µM
same,inhibition of propagation of CSCs,[1]; Vitamin C 250 μM in combination with d-TPP at 100 nM,over 50%
same,inhibition of propagation of CSCs,[1]; Vitamin C 500 μM in combination with d-TPP at 100 nM,over 70%
same,increase in CSC sensitivity to Vitamin C caused by d-TPP,[1]; d-TPP 100 nM,~4 fold
